Data reported in ChEMBL document CHEMBL1201862, “PubChem BioAssay data set” (2004).
Activity calls are given as the source filed them. For most assays here, no stated cut-off is given here; in the data, actives have a measured EC50 and inactives only a lower limit.

Columns and labels:
Protein RecA = target: T1, Protein RecA (Mycobacterium tuberculosis, UniProt P9WHJ3); assay: Fluorescence Cell-Free Homogeneous Dose Retest to Identify Inhibitors of RecA-Intein Splicing Activity. [Related pubchem assays (depositor defined):AID2097, AID2223, AID489010, AID492950]; format: functional
T1 sequence (P9WHJ3 whole entry): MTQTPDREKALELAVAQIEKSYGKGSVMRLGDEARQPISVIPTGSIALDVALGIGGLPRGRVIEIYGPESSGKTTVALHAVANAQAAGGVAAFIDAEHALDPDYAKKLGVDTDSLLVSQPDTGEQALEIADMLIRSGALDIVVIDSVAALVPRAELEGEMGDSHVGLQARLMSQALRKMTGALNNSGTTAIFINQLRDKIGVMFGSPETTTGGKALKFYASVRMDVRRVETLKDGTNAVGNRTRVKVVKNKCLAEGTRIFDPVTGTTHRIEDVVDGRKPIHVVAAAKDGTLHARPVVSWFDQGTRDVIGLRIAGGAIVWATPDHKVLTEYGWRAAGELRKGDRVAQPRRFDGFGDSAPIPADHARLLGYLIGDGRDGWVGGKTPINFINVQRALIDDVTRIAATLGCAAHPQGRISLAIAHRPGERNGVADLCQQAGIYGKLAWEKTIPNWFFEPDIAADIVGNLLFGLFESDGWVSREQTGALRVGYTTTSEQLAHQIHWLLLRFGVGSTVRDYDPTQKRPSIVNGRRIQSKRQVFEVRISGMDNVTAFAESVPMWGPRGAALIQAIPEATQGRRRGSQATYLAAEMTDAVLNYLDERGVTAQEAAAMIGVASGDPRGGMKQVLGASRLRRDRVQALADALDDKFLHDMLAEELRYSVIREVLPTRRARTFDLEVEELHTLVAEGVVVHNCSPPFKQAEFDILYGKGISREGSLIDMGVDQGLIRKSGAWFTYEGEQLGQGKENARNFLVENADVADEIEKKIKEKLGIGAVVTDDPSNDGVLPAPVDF

[1] = target: T2, Replicative DNA helicase DnaB (Mycobacterium tuberculosis, UniProt P9WMR3); assay: DnaB intein splicing inhibitors, dose response, biochemical, cell-free fluorescence (AID 449749); format: functional
T2 sequence (P9WMR3 whole entry): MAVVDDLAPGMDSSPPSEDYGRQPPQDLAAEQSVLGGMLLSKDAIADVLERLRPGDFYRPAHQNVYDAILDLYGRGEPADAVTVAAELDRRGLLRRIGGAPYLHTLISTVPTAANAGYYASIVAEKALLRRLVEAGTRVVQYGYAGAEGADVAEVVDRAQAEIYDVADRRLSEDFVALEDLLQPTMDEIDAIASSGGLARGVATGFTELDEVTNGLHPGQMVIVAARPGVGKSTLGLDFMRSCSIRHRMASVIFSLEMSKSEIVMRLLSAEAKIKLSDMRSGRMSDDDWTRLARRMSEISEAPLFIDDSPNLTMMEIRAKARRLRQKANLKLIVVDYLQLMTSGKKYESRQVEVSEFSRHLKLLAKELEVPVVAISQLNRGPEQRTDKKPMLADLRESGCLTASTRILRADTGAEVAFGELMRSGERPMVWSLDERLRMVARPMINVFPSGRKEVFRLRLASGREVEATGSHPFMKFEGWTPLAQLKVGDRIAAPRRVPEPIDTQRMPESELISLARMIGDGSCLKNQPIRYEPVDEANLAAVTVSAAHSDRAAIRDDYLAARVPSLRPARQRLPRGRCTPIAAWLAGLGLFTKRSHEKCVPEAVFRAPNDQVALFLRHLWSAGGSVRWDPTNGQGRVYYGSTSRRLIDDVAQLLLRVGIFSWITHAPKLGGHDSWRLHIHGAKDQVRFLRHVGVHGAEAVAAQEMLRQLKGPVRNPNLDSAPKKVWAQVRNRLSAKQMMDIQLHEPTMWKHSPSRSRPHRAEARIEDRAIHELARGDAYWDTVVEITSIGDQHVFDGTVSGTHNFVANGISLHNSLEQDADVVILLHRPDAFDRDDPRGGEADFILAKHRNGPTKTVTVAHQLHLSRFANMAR

cells [2] = format: functional, cell-based
cells [3] = format: functional, cell-based; remark: listed apart in the source
INS1 = assay: beta cell apoptosis inhibitors, cytokine rescue, dose response, luminescence, retest (AID 449756); format: functional, cell-based; settings: Rattus norvegicus;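 further: cell death triggered by IL-1 beta plus TNF-alpha plus IFN-gamma mixture; protective hits raise ATP signal compared with cytokine alone wells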
[4] = target: T3, Rac GTPase-activating protein 1 (Homo sapiens, UniProt Q9H0H5); assay: MgcRacGAP GTPase-activating activity inhibitors, confirmation, biochemical, ADP Hunter fluorescence, primary and confirmatory (AID 624330); format: functional
T3 sequence (Q9H0H5 whole entry): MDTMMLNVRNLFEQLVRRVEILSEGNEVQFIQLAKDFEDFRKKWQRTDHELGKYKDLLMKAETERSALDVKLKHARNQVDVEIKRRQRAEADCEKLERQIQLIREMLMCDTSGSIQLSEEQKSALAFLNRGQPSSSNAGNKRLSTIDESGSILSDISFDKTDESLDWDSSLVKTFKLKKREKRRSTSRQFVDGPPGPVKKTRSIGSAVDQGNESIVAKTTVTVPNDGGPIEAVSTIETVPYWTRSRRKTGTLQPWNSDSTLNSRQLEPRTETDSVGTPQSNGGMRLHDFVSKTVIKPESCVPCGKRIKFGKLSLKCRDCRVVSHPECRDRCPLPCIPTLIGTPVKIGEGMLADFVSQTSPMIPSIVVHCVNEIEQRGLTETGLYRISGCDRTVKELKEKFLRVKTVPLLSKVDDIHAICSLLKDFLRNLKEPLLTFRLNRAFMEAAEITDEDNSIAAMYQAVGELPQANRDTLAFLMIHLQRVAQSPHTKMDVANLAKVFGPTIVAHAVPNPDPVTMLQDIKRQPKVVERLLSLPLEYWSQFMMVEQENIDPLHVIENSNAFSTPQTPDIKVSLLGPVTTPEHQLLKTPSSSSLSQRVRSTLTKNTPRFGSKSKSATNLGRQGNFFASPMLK

[5] = Luminescence Cell-Based Dose Response HTS to Identify Activators of Luciferase Translation or Activity in H4 […] Cells. [Related pubchem assays: 1829 (Project Summary), 1814 (Primary HTS)]; format: functional
[6] = cytotoxicity toward NIH3T3 fibroblasts, dose response, counter-screen, cell-based, ATP luminescence, mouse fibroblasts (AID 2010); format: functional;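 further: cells exposed to compound for about 90 hours before reading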
[7] = inhibitors of intracellular T. cruzi replication, confirmation, NIH3T3 host cells, beta-gal luminescence (AID 2044); format: functional, cell-based;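 further: intracellular parasites grown in NIH/3T3 mouse fibroblasts as host cells; luminescent beta-galactosidase reporter signal from transgenic T. cruzi replicating inside host cells; inhibitors lower the luminescence signal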
[8] = Luminescence Cell-Based Dose Confirmation HTS to Identify Activators of 5'UTR Stem-Loop Driven Alpha-Synuclein mRNA Translation in H4 Neuroglioblastoma Cells. [Related pubchem assays: 1829 (Project Summary), 1814 (Primary HTS)]; format: functional
H4 = assay: Luminescence Cell-Based Dose Response HTS to Identify Activators of 5'UTR Stem-Loop Driven Prion Protein mRNA Translation in H4 Neuroglioblastoma Cells. [Related pubchem assays: 1829 (Project Summary), 1814 (Primary HTS)]; format: functional; settings: Homo sapiens
[9] = target: T4, Heat shock factor protein 1 (Mus musculus, UniProt P38532); assay: HSF1 potentiators in luciferase reporter cells, confirmation, cell-based, NIH3T3, luminescence, dose retest (AID 435004); format: functional;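 further: stress induced by proteasome inhibitor MG132 added 30 min after compound; luciferase reporter driven by HSF1 response element in NIH3T3 cells; actives raise luminescence as potentiators of the MG132 stress response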
T4 sequence (P38532 whole entry): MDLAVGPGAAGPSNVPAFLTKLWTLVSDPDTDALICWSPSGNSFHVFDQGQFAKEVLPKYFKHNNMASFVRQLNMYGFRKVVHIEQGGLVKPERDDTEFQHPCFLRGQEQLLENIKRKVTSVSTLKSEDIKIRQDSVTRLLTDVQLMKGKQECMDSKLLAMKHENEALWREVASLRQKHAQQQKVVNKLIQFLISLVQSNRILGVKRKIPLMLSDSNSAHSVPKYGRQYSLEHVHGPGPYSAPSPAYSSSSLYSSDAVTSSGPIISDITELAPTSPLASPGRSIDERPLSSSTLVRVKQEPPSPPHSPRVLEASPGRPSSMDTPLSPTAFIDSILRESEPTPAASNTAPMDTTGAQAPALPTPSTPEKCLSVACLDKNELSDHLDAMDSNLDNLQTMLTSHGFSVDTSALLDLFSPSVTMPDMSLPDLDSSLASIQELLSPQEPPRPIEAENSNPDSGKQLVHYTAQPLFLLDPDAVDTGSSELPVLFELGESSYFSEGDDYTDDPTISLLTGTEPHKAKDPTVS

SMILES: COc1cc(C2C(C#N)=C(N)Oc3[nH]nc(-c4cccnc4)c32)ccc1OCC(N)=O (stereo not given)
- EC50 (Protein RecA): 3.16 µM (active)
- AC50 [1]: 48.5 µM (active)

SMILES: COc1cc(NC(=O)CN2C(=O)c3ccccc3Sc3ccc(C(=O)N4CCOCC4)cc32)cc(OC)c1OC
- EC50 (cells [2]): > 350 µM (not active)
- EC50 (cells [3]): > 350 µM (not active)

SMILES: Cc1nnc2ccc(Oc3ccc(-c4ccccc4)cc3)nn12
- AC50 (INS1): 6.58 µM (active)
- IC50 [4]: 99.4 µM (active)

SMILES: CCc1ccc2nc(O)c(CN(Cc3ccccc3OC)C(=O)Nc3ccccc3OC)cc2c1
- EC50 [5]: > 120 µM (not active)
- EC50 [6]: > 60 µM (not active)
- EC50 [7]: 3 µM (active)
- EC50 [8]: 111 µM (active)
- EC50 (H4): 111 µM (active)

SMILES: CCSc1cc(C)nc2c(-c3ccccc3)cnn12
- EC50 (cells [2]): > 350 µM (not active)
- EC50 (cells [3]): 23.1 µM (active)

SMILES: COc1cc2c(cc1OC)CN(c1ccc3ccccc3n1)CC2
- EC50 [5]: 11.9 µM (active)
- EC50 [8]: 17 µM (active)
- EC50 (H4): 15.9 µM (active)

SMILES: CCOC(=O)/C(C#N)=C1/C=CN(c2ccc(C)cc2)C=N1
- EC50 [5]: 14.9 µM (active)
- EC50 [8]: > 120 µM (not active)
- EC50 (H4): 14.8 µM (active)

SMILES: CCN1CCN(C(S)=NCC2CCCO2)CC1 (stereo not given)
- IC50 [4]: 186 µM (active)

SMILES: CCCCCn1c(=O)c(C(=O)NCc2ccccc2Cl)c(O)c2ccccc21
- AC50 (INS1): 8.04 µM (active)

SMILES: Cc1ccc(OC(C)C(=O)N2CC(=O)Nc3ccccc32)cc1 (stereo not given)
- EC50 (cells [2]): > 350 µM (not active)
- EC50 (cells [3]): > 350 µM (not active)

SMILES: Cc1ccc(S(=O)(=O)Nc2cc(-c3ccc(Cl)cc3)nn2C)cc1
- EC50 (cells [2]): > 350 µM (not active)
- EC50 (cells [3]): > 350 µM (not active)

SMILES: O=C(c1c[nH]c(C(=O)C(Cl)(Cl)Cl)c1)c1ccc(F)cc1F
- EC50 (Protein RecA): 7.8 µM (active)
- AC50 [1]: 21.2 µM (active)

SMILES: O=c1c2cc(-c3ccccc3)sc2ncn1-n1cccc1
- EC50 [5]: 0.674 µM (active)
- EC50 [8]: 0.473 µM (active)
- EC50 (H4): 15 µM (active)

SMILES: Cc1cccc(-n2ccnc2SCC(=O)Nc2nccs2)c1
- EC50 [5]: 23.4 µM (active)
- EC50 [8]: 6.34 µM (active)
- EC50 (H4): > 120 µM (not active)

SMILES: Cc1ccc(COC(=O)Cc2coc3cc(O)ccc23)cc1
- IC50 [4]: 30.1 µM (active)

SMILES: O=C(CSc1nnnn1C1CC1)N1CCN(c2ccc(O)cc2)CC1
- IC50 [4]: 30.8 µM (active)

SMILES: CC(=O)n1c2c(c3ccccc31)OC(N)=C(C#N)C2c1ccc(C(C)C)cc1 (stereo not given)
- EC50 [5]: 10 µM (active)
- EC50 [8]: 11.7 µM (active)
- EC50 (H4): 16.2 µM (active)

SMILES: CCCS(=O)(=O)N1CCN(Cc2ccco2)CC1
- IC50 [4]: 130 µM (active)

SMILES: CCCc1cc2c(=O)c(-c3ccc4c(c3)OCCO4)coc2cc1OS(C)(=O)=O
- EC50 [5]: < 0.195 µM (inconclusive)
- EC50 [8]: 0.103 µM (active)
- EC50 (H4): > 120 µM (not active)

SMILES: Cc1cccc(Nc2c(-c3ccc(O)cc3)nc3ncccn23)c1
- IC50 [4]: 32.1 µM (active)

SMILES: Cc1ccc(OCCCCNC(C)(C)C)c([N+](=O)[O-])c1
- IC50 [4]: 141 µM (active)

SMILES: Oc1ccc(-c2cn3c(n2)SCC3)cc1
- IC50 [4]: 18.9 µM (active)

SMILES: Cc1[nH]nc(O)c1C(c1ccc(Cl)cc1)c1c(O)n[nH]c1C
- EC50 (Protein RecA): 0.461 µM (active)
- AC50 [1]: 1.27 µM (active)

SMILES: O=C(Cn1nc(-c2ccccc2Cl)ccc1=O)Nc1ccccc1-c1ccccc1
- EC50 (cells [2]): > 350 µM (not active)
- EC50 (cells [3]): > 350 µM (not active)
- EC50 [9]: 120 µM (active)

SMILES: COc1ccnc(N=CNOCc2ccc(C)cc2)c1C#N
- EC50 [5]: 12.5 µM (active)
- EC50 [8]: 14.7 µM (active)
- EC50 (H4): 55.5 µM (active)

SMILES: Cc1ccc(-n2cc(CN3CCC(CO)(Cc4ccccc4)CC3)cn2)cc1
- EC50 (cells [2]): > 350 µM (not active)
- EC50 (cells [3]): > 350 µM (not active)

SMILES: COc1ccc(NC2CCCN(C(=O)c3ccc4[nH]c(C)c(C)c4c3)C2)cc1 (stereo not given)
- IC50 [4]: 81.4 µM (active)

SMILES: COC(=O)COc1c(Cl)cc(C(c2c(C)n[nH]c2O)c2c(C)n[nH]c2O)cc1OC
- EC50 (Protein RecA): 0.158 µM (active)
- AC50 [1]: 0.47 µM (active)

SMILES: C(/CCc1ccccc1)=N\Nc1nc2ccccc2[nH]1
- AC50 (INS1): 5.2 µM (active)
- EC50 (cells [2]): 92.2 µM (active)
- EC50 (cells [3]): 35.8 µM (active)

SMILES: Cc1occc1C(=O)N/N=C/c1c(O)ccc2ccccc12
- AC50 (INS1): 1.25 µM (active)
- EC50 (cells [2]): 69 µM (active)
- EC50 (cells [3]): 9.8 µM (active)

SMILES: O=[N+]([O-])c1cccc(/C=N/n2cnnc2)c1
- AC50 (INS1): > 260 µM (inactive)
